US20130079228A1, “Agricultural spray solution compositions and methods” (priority 2011, published 2013)

Tested on: velvetleaf
Test: efficacy of glyphosate spray on velvetleaf
Type: in vivo
Conditions: in presence of drift reducing adjuvants, especially DR
Description: Applicant's invention further contemplates the use of drift management adjuvants on the atomization, drift, patternation, retention, deposit formation, and efficacy of an herbicide spray. The drift of the spray particles decreases by suppressing the formation of fine droplets, i.e., <150 microns in diameter. The impact of drift reducing additives on pesticide efficacy in terms of the effect on the major phases, i.e., the larger droplets, on the dose transfer process is also considered. Two representative drift reducing adjuvants, i.e., (1) polyacrylamide polymers represented by Nalcotrol or Nalcotrol II (N or N2), and (2) biodegradable polymers represented by AgRHO DR-2000 (DR) of Rhone-Poulenc Inc. were considered in mixtures containing glyphosate.
Pattern distributions undergo significant deviations from even distributions using herbicide alone when polymers are added. […] 30% less spray is reflected from the cabbage leaves from mixtures containing DR compared to either water alone or water containing polyacrylamide polymers. Spray retention is reduced by the addition of drift reducing adjuvants. DR is better at wetting the cabbage leaves. […] The efficacy of glyphosate on velvetleaf is enhanced by the presence of drift reducing adjuvants, especially DR. […]

For `O=C(O)CNCP(=O)(O)O` [glyphosate], which “efficacy of glyphosate on velvetleaf” value is on record?
The value was “enhanced”.
